For data set [1], the target named is T1, Butyrylcholinesterase from equine serum (BChE) (Equus caballus, UniProt P81908).
T1 construct: Butyrylcholinesterase from equine serum (BChE); purchased Merck kGaA, Darmstadt, Germany; host or cells: equine serum
Put plainly: Butyrylcholinesterase inhibition assay (Ellman method, modified). The class given is biochemical. The text has this:
(§1) 5,5′-Dithiobis(2-nitrobenzoic acid), (DTNB), acetylthiocholine iodide, butyryl-thiocholine iodide, acetylcholinesterase from Electrophorus electricus, type VI-S (aChE), Butyrylcholinesterase from equine serum (BChE), neostigmine bromide, and sodium dodecyl sulfate (SDS) were purchased from Merck kGaA, Darmstadt, Germany.
(§2) Referring to both the Ellman and Jin et al. methods, we identified acetylcholinesterase/butyrylcholinesterase activity, implementing minor modifications. In brief, the assay was carried out on a 96-well plate, with each well containing 140 µL 0.1 M phosphate buffer (pH 8.0), 10 µL of stock solution of Mv, or Mv 3-glc or Mv 3,5-diglc, 10 µL AChE/BChE (1 units/mL). The plate was incubated for 10 min at 25 °C. Subsequently, 10 μL of a 10 mM DTNB was added to the reaction mixture. In the following step, the reaction was initiated by adding 10 μL of a 14 mM acetylthiocholine iodide/butyryl-thiocholine iodide. The plate was shaken for one minute and finally 20 µL of 5% SDS was added in order to stop the reaction. Control wells, which contained the same composition except for the studied compounds (10 µL, 70% ethanol), were included. […] All of the reactions were performed in five repetitions. The percent of AChE/BChE inhibition was calculated using the following formula:(1) %Inhibition=Ac−As/Ac·100% where: As refers to the absorbance of the sample containing Mvs and Ac refers to the absorbance of the control sample. The studies of AChE and BChE inhibition were also performed depending on the concentration of the drug, neostigmine, as a positive control.
On the technique in general: Ellman's reagent forms a yellow product with free thiols.

Data set [2] addresses T2, acetylcholinesterase from Electrophorus electricus, type VI-S (AChE) (Electrophorus electricus, UniProt O42275).
T2 construct: purchased Merck kGaA, Darmstadt, Germany
Put plainly: Acetylcholinesterase inhibition assay (Ellman method, modified). The class given is biochemical.
Text: as §1, §2

The target of data set [3] is T3, COX-2 (human recombinant) (Homo sapiens, UniProt P35354).
T3 construct: purchased Cayman Chemical, Ann Arbor, MI, USA 701050
T3 sequence (P35354 18-604): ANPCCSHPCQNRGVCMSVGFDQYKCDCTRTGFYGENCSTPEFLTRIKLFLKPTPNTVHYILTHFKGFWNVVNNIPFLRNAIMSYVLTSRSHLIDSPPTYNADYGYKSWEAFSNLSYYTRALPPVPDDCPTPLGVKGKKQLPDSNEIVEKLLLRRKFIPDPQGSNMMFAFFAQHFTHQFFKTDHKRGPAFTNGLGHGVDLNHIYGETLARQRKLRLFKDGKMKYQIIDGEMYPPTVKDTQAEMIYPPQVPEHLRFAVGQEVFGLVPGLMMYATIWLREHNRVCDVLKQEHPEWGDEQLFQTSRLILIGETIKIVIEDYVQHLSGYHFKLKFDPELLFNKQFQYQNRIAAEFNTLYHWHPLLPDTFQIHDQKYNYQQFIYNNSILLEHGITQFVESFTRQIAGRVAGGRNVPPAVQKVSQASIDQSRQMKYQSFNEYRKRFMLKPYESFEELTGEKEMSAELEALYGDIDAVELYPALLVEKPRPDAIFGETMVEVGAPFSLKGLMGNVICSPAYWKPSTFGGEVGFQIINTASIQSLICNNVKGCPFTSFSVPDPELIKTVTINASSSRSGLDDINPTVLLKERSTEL
Put plainly: COX colorimetric inhibitor screening assay, COX-2. The class given is biochemical. Conditions: for Selectivity Index COX-2/COX-1: ratio of IC50 COX-2 to IC50 COX-1. The protocol: (§3) Firstly, the plate was carefully shaken for a few seconds and incubated for 5 min at 25 °C. Secondly, 20 μL of colorimetric substrate solution was added to each plate’s well. It was the addition of 20 μL of arachidonic acid (final concentration in reaction mixture 100 µM) which initiated the reaction. Thirdly, the plate was shaken again for a few seconds and incubated for two min at 25 °C. […] The percentage of COX inhibition was calculated using the Equation (1): […]
(§4) The IC50 parameter was calculated referring to plots showing the relation between percentage of COX inhibition and concentration of the compounds.

The conditions of data set [4]: physiological pH, species established in previous publication, cited from earlier work.
Another data set has as its target T4, COX-1 (ovine) (Ovis aries, UniProt P05979).
T4 construct: purchased Cayman Chemical, Ann Arbor, MI, USA 701050
T4 sequence (P05979 25-600): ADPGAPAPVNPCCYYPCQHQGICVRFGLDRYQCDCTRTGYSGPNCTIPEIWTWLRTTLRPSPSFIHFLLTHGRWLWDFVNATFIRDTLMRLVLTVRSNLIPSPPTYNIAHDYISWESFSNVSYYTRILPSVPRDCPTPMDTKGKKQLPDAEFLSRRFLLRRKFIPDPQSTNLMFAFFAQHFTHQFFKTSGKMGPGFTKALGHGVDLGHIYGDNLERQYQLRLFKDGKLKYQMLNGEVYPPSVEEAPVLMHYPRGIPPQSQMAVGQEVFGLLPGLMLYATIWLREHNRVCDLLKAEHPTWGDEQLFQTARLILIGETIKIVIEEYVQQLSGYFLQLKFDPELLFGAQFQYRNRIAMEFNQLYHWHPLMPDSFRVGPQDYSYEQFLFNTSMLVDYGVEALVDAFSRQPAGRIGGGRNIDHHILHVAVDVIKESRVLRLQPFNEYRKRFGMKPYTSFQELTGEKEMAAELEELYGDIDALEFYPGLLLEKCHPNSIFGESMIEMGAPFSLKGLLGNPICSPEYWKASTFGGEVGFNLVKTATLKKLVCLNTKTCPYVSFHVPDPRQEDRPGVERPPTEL
Put plainly: COX colorimetric inhibitor screening assay, COX-1. The class given is biochemical. The protocol: as §3, §4

Where [5] appears, read: compound concentration 100 µM, read-out: Inhibition of BChE (%).
Where [6] appears, read: compound concentration 100 µM, read-out: Inhibition of AChE (%).
[7] abbreviates: compound concentration 100 µM, 100 µM.

Like-named read-outs stand apart in the source and are kept apart here. Marks after values point to notes of the source that are not given here.

By IC50 is commonly meant the concentration that inhibits the measured activity by half.

T2 sequence (O42275 24-633): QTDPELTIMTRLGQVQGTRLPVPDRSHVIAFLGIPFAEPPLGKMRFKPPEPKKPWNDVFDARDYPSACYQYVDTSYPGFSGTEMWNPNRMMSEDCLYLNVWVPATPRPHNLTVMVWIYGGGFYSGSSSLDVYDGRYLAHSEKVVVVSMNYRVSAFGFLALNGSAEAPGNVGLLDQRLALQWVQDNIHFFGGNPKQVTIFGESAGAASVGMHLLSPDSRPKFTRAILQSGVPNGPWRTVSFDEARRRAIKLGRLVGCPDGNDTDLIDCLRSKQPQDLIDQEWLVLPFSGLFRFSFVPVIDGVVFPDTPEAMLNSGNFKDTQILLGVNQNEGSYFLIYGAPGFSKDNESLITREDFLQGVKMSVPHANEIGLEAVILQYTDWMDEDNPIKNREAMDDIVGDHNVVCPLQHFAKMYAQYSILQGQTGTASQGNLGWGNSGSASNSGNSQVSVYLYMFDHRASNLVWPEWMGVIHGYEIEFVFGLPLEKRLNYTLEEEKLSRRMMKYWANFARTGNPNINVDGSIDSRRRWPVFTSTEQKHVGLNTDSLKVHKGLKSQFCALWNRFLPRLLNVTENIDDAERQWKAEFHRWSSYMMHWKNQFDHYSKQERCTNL
T1 sequence (P81908 whole entry): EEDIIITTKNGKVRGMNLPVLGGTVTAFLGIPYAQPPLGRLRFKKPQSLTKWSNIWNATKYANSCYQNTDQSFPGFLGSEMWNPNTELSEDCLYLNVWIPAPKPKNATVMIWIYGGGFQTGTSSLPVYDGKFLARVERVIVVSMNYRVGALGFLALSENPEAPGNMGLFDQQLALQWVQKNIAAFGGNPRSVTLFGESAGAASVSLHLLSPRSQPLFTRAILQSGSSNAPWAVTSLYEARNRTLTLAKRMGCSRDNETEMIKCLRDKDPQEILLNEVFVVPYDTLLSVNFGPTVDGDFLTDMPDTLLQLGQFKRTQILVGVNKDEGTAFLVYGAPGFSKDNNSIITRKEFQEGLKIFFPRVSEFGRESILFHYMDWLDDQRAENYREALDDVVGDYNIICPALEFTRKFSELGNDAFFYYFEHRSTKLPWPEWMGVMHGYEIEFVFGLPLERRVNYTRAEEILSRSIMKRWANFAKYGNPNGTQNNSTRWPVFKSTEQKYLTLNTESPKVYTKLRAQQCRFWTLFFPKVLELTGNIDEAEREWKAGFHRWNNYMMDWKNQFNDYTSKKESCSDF

The compound `CN(C)C(=O)Oc1cccc([N+](C)(C)C)c1` [Neostigmine, neostigmine bromide, reference compound] gave an inhibition at 20.28 µM in data set [1] (neostigmine concentration 20.28 µM, positive control) of 50 ± 4.2%. In addition, the figures for the IC50 in data set [1] (positive control) and in data set [2] (positive control) were 20.3 ± 1.7 µM and 0.17 ± 0.01 µM, respectively. In data set [2] (neostigmine concentration 0.17 µM, positive control), the inhibition at 0.17 µM was determined as 50 ± 1.2%.
On to `COc1cc(-c2[o+]c3cc(O)cc(O)c3cc2O)cc(OC)c1O` [Mv, malvidin], for which the IC50 was determined as 2.76 ± 0.16 µM in data set [3] and 12.4 ± 0.7 µM against COX-1 (ovine). Besides, in data set [3], the “Selectivity Index COX-2/COX-1” value is 0.22. Besides, the values for the inhibition at 100 µM in data set [1] (setting [5]) and in data set [2] (setting [6]) were 10.2 ± 2.2% and 19.5 ± 2.3%, respectively. Moreover, the “fM (population of the species)” value was 39.56% in data set [4], 8.08% in data set [4] (listed as Mv^2−), 0.13% in data set [4] (listed as Mv^3−) and 52.15% in data set [4] (listed as Mv^−).
As to `COc1cc(-c2[o+]c3cc(O)cc(OC4OC(CO)C(O)C(O)C4O)c3cc2OC2OC(CO)C(O)C(O)C2O)cc(OC)c1O` (stereo not drawn) [Mv 3,5-diglc, malvidin 3,5-O-diglucoside], the IC50 was determined as 66.5 ± 1.93 µM in data set [3] and 90.4 ± 1.92 µM against COX-1 (ovine). Also, the “Selectivity Index COX-2/COX-1” value in data set [3] is recorded as 0.83. Further, the inhibition at 100 µM worked out at 13.4 ± 2.4% in data set [1] (setting [5]) and 11.9 ± 4.5% in data set [2] (setting [6]). Further, the figures for the “fM (population of the species)” value in data set [4] and in data set [4] (listed as Mv 3,5-diglc^–) were 39.19% and 60.70%, respectively.
`COc1cc(-c2[o+]c3cc(O)cc(O)c3cc2OC2OC(CO)C(O)C(O)C2O)cc(OC)c1O` (stereo not drawn) [Mv 3-glc, malvidin 3-O-glucoside]: the IC50 in data set [3] was 39.9 ± 3.02 µM; at COX-1 (ovine), 74.78 ± 0.06 µM. The “Selectivity Index COX-2/COX-1” value in data set [3] came to 0.53. For the same compound, the “Inhibition of BChE (%)” value in data set [1] (setting [7]) is on record as 22.1 ± 3.0 ^a %. The inhibition at 100 µM in data set [1] (read-out: Inhibition of BChE (%), compound concentration 100 µM) turned out to be 22.1 ± 3%; in data set [2] (read-out: Inhibition of AChE (%), compound concentration 100 µM), 26.3 ± 3.06%. For the same compound, the “Inhibition of AChE (%)” value in data set [2] (setting [7]) is 26.3 ± 3.1 ^a %. The “fM (population of the species)” value in data set [4] is 3.49%; in data set [4] (listed as Mv 3-glc^2−), 18.33%; in data set [4] (listed as Mv 3-glc^−), 78.18%.

(Values after paper PMC10708353, “Malvidin and Its Mono- and Di-Glucosides Forms: A Study of Combining Both In Vitro and Molecular Docking Studies Focused on Cholinesterase, Butyrylcholinesterase, COX-1 and COX-2 Activities” (Molecules, 2023).)
